Each structure is given as a SMILES string. Where “and” joins values, the source holds several entries; their conditions need not be identical. Identical values can stand only once.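 Five compound concentrations were applied to cells in 96-well plates for 48 hours; endpoints were derived by simple linear interpolation of the resulting dose-response curve. GI50: concentration for 50% inhibition of growth. Definition used: TGI = concentration required for complete inhibition of growth.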

The test system of one experiment is M14 melanoma. The experiment is described as follows: NCI-60 cell line screen, 48 h.
On to `Cn1cc(C2=C(c3ccc(OC[C@@H](O)CO)cc3)C(=O)NC2=O)c2ccccc21`, for which the GI50 was above 25 µM and the TGI is above 25 µM.

The next experiment has as its system COLO 205 colon. The experiment is described as follows: NCI-60 cell line screen, 48 h.
For `O=[n+]1c(CBr)c(CBr)n([O-])c2ccccc21`, the GI50 was 2.04 µM and the TGI turned out to be 3.99 µM.

Turning to `Fc1ccc(-c2nn(-c3ccccc3)cc2-c2nc3ccccc3o2)cc1`, the GI50 was 15.1 µM and the TGI was found to be 30.5 µM.

`OCc1c(-c2cccc3ccccc23)sc(-c2cccc3ccccc23)c1CO`: the TGI was 24.9 µM.

On to `O=c1c(Cl)c(Cl)cnn1-c1ccccc1`, for which the GI50 was 1.74 µM and 3.54 µM; the TGI was 3.62 µM and 7.92 µM.

As to `COc1ccc(-n2cc(-c3ccc(OC)c(OC)c3)[nH]c2=S)cc1Cl`, the GI50 is above 100 µM and the TGI was above 100 µM.

On to `O=C1Oc2cc3c(c4cccc1c24)OCN(c1ccc(Cl)cc1)C3`, for which the TGI is above 100 µM.

As for `CN(C)CCNc1nc2ccccc2c2[nH]c3ccccc3c12`, the GI50 is 0.316 µM and the TGI turned out to be 1.09 µM.

`OCCNCO` registered a TGI above 100 µM.

`CC(=O)c1ccc(N(/C=C/C(=O)C(F)(F)F)CC(=O)c2ccc(Cl)c(Cl)c2)cc1`: the GI50 is 22.6 µM and the TGI was 65 µM.

As to `COc1cc2c(c(O)c1C)C(=O)C(Cl)=CC2=O`, the TGI stood at 4.96 µM.

`COc1cc2c(cc1OC)C1C=NC(C(=O)O)(C2)c2ccccc21` (stereo not drawn) displayed a TGI above 100 µM.

As for `Clc1cccc(NC=Nc2ccc(-c3nc4ccccc4s3)cc2)c1`, the GI50 was 12.2 µM and the TGI turned out to be 39.9 µM.

`CN(C)S(=O)(=O)Nc1ccccn1` showed a TGI above 100 µM.

As to `O=C1c2ccccc2C(=O)c2c1ccc1[nH]c(CCl)nc21`, the GI50 is 2.54 µM and the TGI came out at 8.62 µM.

As to `CCN1CCN(c2nc(NCCNc3ccnc4cc(Cl)ccc34)c3ccccc3n2)CC1`, the GI50 is 0.505 µM and the TGI stood at 2.07 µM.

As for `COc1ccccc1NC(=O)c1ccc(/C=C/C(=O)c2nccn2C)cc1`, the GI50 is 0.552 µM and the TGI amounted to 1.29 µM.

`CN(C)CCNC(=O)c1cccc2nc3c(Cl)cccc3nc12`: the TGI is above 37.3 µM.

`Cn1cc(C2=C(c3ccc(OC[C@@H](O)CO)cc3)C(=O)NC2=O)c2ccccc21`: the GI50 is above 25 µM and the TGI is above 25 µM.

The next experiment has as its system NCI-H522 lung. The experiment is described as follows: NCI-60 cell line screen, 48 h.
With `O=[n+]1c(CBr)c(CBr)n([O-])c2ccccc21`, the GI50 is 1.74 µM and the TGI was 3.17 µM.

`Fc1ccc(-c2nn(-c3ccccc3)cc2-c2nc3ccccc3o2)cc1`: the GI50 is 3.62 µM and the TGI came out at 16.8 µM.

`OCc1c(-c2cccc3ccccc23)sc(-c2cccc3ccccc23)c1CO` returned a TGI of 22.9 µM.

On to `O=c1c(Cl)c(Cl)cnn1-c1ccccc1`, for which the TGI was 2.82 µM and 3.79 µM.

Regarding `COc1ccc(-n2cc(-c3ccc(OC)c(OC)c3)[nH]c2=S)cc1Cl`, the GI50 was above 100 µM and the TGI is above 100 µM.

As for `O=C1Oc2cc3c(c4cccc1c24)OCN(c1ccc(Cl)cc1)C3`, the TGI stood at 30.8 µM.

As for `CN(C)CCNc1nc2ccccc2c2[nH]c3ccccc3c12`, the GI50 is 1.33 µM.

`OCCNCO` showed a TGI above 100 µM.

`CC(=O)c1ccc(N(/C=C/C(=O)C(F)(F)F)CC(=O)c2ccc(Cl)c(Cl)c2)cc1`: the GI50 is 13.2 µM and the TGI amounted to 27.7 µM.

On to `COc1cc2c(c(O)c1C)C(=O)C(Cl)=CC2=O`, for which the TGI amounted to 5.24 µM.

The compound `COc1cc2c(cc1OC)C1C=NC(C(=O)O)(C2)c2ccccc21` (stereo not drawn) registered a TGI above 100 µM.

Regarding `Clc1cccc(NC=Nc2ccc(-c3nc4ccccc4s3)cc2)c1`, the GI50 is 11.8 µM and the TGI turned out to be 22.3 µM.

Regarding `CN(C)S(=O)(=O)Nc1ccccn1`, the TGI is above 100 µM.

For the compound `O=C1c2ccccc2C(=O)c2c1ccc1[nH]c(CCl)nc21`, the GI50 was 1.63 µM and the TGI was determined as 3.53 µM.

As for `CCN1CCN(c2nc(NCCNc3ccnc4cc(Cl)ccc34)c3ccccc3n2)CC1`, the GI50 was 2.14 µM and the TGI was 4.54 µM.

As to `COc1ccccc1NC(=O)c1ccc(/C=C/C(=O)c2nccn2C)cc1`, the GI50 was 0.584 µM and the TGI turned out to be 1.52 µM.

`CN(C)CCNC(=O)c1cccc2nc3c(Cl)cccc3nc12` registered a TGI above 100 µM.

Regarding `Cn1cc(C2=C(c3ccc(OC[C@@H](O)CO)cc3)C(=O)NC2=O)c2ccccc21`, the GI50 was above 25 µM and the TGI is above 25 µM.

Another experiment has as its system OVCAR-5 ovarian. The experiment is described as follows: NCI-60 cell line screen, 48 h.
As for `O=[n+]1c(CBr)c(CBr)n([O-])c2ccccc21`, the GI50 is 14 µM and the TGI amounted to 27.1 µM.

As for `Fc1ccc(-c2nn(-c3ccccc3)cc2-c2nc3ccccc3o2)cc1`, the GI50 was 20.1 µM and the TGI was determined as 77.2 µM.

As to `OCc1c(-c2cccc3ccccc23)sc(-c2cccc3ccccc23)c1CO`, the TGI stood at 30.9 µM.

For `O=c1c(Cl)c(Cl)cnn1-c1ccccc1`, the GI50 is 19.7 µM and 9.53 µM; the TGI was 38.8 µM and 19.8 µM.

Turning to `COc1ccc(-n2cc(-c3ccc(OC)c(OC)c3)[nH]c2=S)cc1Cl`, the GI50 is above 100 µM and the TGI is above 100 µM.

Consider `O=C1Oc2cc3c(c4cccc1c24)OCN(c1ccc(Cl)cc1)C3`, for which the TGI was above 77.3 µM.

As to `CN(C)CCNc1nc2ccccc2c2[nH]c3ccccc3c12`, the GI50 was 1.56 µM and the TGI was determined as 21.9 µM.

`OCCNCO` returned a TGI above 100 µM.

With `CC(=O)c1ccc(N(/C=C/C(=O)C(F)(F)F)CC(=O)c2ccc(Cl)c(Cl)c2)cc1`, the GI50 was 18.6 µM and the TGI was 35.9 µM.

`COc1cc2c(c(O)c1C)C(=O)C(Cl)=CC2=O` registered a TGI of 44.3 µM.

Regarding `COc1cc2c(cc1OC)C1C=NC(C(=O)O)(C2)c2ccccc21` (stereo not drawn), the TGI was above 100 µM.

On to `Clc1cccc(NC=Nc2ccc(-c3nc4ccccc4s3)cc2)c1`, for which the GI50 is 23.6 µM and the TGI is above 50 µM.

Compound `CN(C)S(=O)(=O)Nc1ccccn1` yielded a TGI above 100 µM.

As to `O=C1c2ccccc2C(=O)c2c1ccc1[nH]c(CCl)nc21`, the GI50 was 10.2 µM and the TGI was determined as 24.5 µM.

Regarding `CCN1CCN(c2nc(NCCNc3ccnc4cc(Cl)ccc34)c3ccccc3n2)CC1`, the GI50 was 2.56 µM and the TGI was found to be 9.14 µM.

Consider `COc1ccccc1NC(=O)c1ccc(/C=C/C(=O)c2nccn2C)cc1`, for which the GI50 is 0.619 µM and the TGI came to 1.73 µM.

Compound `CN(C)CCNC(=O)c1cccc2nc3c(Cl)cccc3nc12` registered a TGI of 16.7 µM.

Turning to `Cn1cc(C2=C(c3ccc(OC[C@@H](O)CO)cc3)C(=O)NC2=O)c2ccccc21`, the GI50 was above 25 µM and the TGI is above 25 µM.

In another experiment the test system is SR leukemia. The experiment is described as follows: NCI-60 cell line screen, 48 h.
Turning to `O=[n+]1c(CBr)c(CBr)n([O-])c2ccccc21`, the GI50 was 2.82 µM and the TGI was above 100 µM.

For `Fc1ccc(-c2nn(-c3ccccc3)cc2-c2nc3ccccc3o2)cc1`, the GI50 is 3.71 µM and the TGI is above 100 µM.

As for `OCc1c(-c2cccc3ccccc23)sc(-c2cccc3ccccc23)c1CO`, the TGI was 44 µM.

Consider `O=c1c(Cl)c(Cl)cnn1-c1ccccc1`, for which the TGI was > 19.7 µM and 3.92 µM.

`COc1ccc(-n2cc(-c3ccc(OC)c(OC)c3)[nH]c2=S)cc1Cl`: the GI50 is above 100 µM and the TGI was above 100 µM.

Compound `O=C1Oc2cc3c(c4cccc1c24)OCN(c1ccc(Cl)cc1)C3` returned a TGI of 49 µM.

Turning to `CN(C)CCNc1nc2ccccc2c2[nH]c3ccccc3c12`, the GI50 is 0.341 µM and the TGI was determined as 1.31 µM.

Compound `OCCNCO` yielded a TGI above 100 µM.

`CC(=O)c1ccc(N(/C=C/C(=O)C(F)(F)F)CC(=O)c2ccc(Cl)c(Cl)c2)cc1`: the GI50 is 3.59 µM and the TGI was 19.3 µM.

Compound `COc1cc2c(c(O)c1C)C(=O)C(Cl)=CC2=O` had a TGI of 4.37 µM.

In turn, `COc1cc2c(cc1OC)C1C=NC(C(=O)O)(C2)c2ccccc21` (stereo not drawn) came in with a TGI above 100 µM.

`Clc1cccc(NC=Nc2ccc(-c3nc4ccccc4s3)cc2)c1`: the GI50 is 9.55 µM and the TGI came to 21.1 µM.

`CN(C)S(=O)(=O)Nc1ccccn1`: the TGI was above 100 µM.

For `O=C1c2ccccc2C(=O)c2c1ccc1[nH]c(CCl)nc21`, the GI50 is 2.25 µM and the TGI is 13.8 µM.

Turning to `CCN1CCN(c2nc(NCCNc3ccnc4cc(Cl)ccc34)c3ccccc3n2)CC1`, the GI50 is 0.287 µM and the TGI came to 0.898 µM.

As for `COc1ccccc1NC(=O)c1ccc(/C=C/C(=O)c2nccn2C)cc1`, the GI50 is 0.242 µM and the TGI turned out to be 7 µM.

Turning to `CN(C)CCNC(=O)c1cccc2nc3c(Cl)cccc3nc12`, the TGI is above 100 µM.

`Cn1cc(C2=C(c3ccc(OC[C@@H](O)CO)cc3)C(=O)NC2=O)c2ccccc21`: the GI50 was above 25 µM and the TGI was above 25 µM.

A further experiment concerns LOX IMVI melanoma. The experiment is described as follows: NCI-60 cell line screen, 48 h.
Take `O=[n+]1c(CBr)c(CBr)n([O-])c2ccccc21`: the GI50 is 1.8 µM and the TGI was 3.48 µM.

Consider `Fc1ccc(-c2nn(-c3ccccc3)cc2-c2nc3ccccc3o2)cc1`, for which the GI50 was 2.36 µM and the TGI came to 12.4 µM.

`OCc1c(-c2cccc3ccccc23)sc(-c2cccc3ccccc23)c1CO` showed a TGI of 30.5 µM.

In the case of `O=c1c(Cl)c(Cl)cnn1-c1ccccc1`, the TGI is 3.26 µM and 4.03 µM.

In the case of `COc1ccc(-n2cc(-c3ccc(OC)c(OC)c3)[nH]c2=S)cc1Cl`, the GI50 was above 100 µM and the TGI is above 100 µM.

`O=C1Oc2cc3c(c4cccc1c24)OCN(c1ccc(Cl)cc1)C3`: the TGI was determined as 17.7 µM.

Regarding `CN(C)CCNc1nc2ccccc2c2[nH]c3ccccc3c12`, the GI50 was 0.301 µM and the TGI stood at 1.11 µM.

Compound `OCCNCO` had a TGI above 100 µM.

Take `CC(=O)c1ccc(N(/C=C/C(=O)C(F)(F)F)CC(=O)c2ccc(Cl)c(Cl)c2)cc1`: the GI50 was 12.4 µM and the TGI is 26.8 µM.

In the case of `COc1cc2c(c(O)c1C)C(=O)C(Cl)=CC2=O`, the TGI stood at 23.8 µM.

`COc1cc2c(cc1OC)C1C=NC(C(=O)O)(C2)c2ccccc21` (stereo not drawn) gave a TGI above 100 µM.

Regarding `Clc1cccc(NC=Nc2ccc(-c3nc4ccccc4s3)cc2)c1`, the GI50 is 9.46 µM and the TGI turned out to be 17.5 µM.

Compound `CN(C)S(=O)(=O)Nc1ccccn1` yielded a TGI above 100 µM.

Consider `O=C1c2ccccc2C(=O)c2c1ccc1[nH]c(CCl)nc21`, for which the GI50 is 2.2 µM and the TGI worked out at 5.22 µM.

On to `CCN1CCN(c2nc(NCCNc3ccnc4cc(Cl)ccc34)c3ccccc3n2)CC1`, for which the GI50 is 1.51 µM and the TGI is 3.01 µM.

Regarding `COc1ccccc1NC(=O)c1ccc(/C=C/C(=O)c2nccn2C)cc1`, the GI50 is 0.278 µM and the TGI was 0.605 µM.

Turning to `CN(C)CCNC(=O)c1cccc2nc3c(Cl)cccc3nc12`, the TGI worked out at 10.7 µM.

Regarding `Cn1cc(C2=C(c3ccc(OC[C@@H](O)CO)cc3)C(=O)NC2=O)c2ccccc21`, the GI50 is above 25 µM and the TGI is above 25 µM.

The record behind these values is PubChem BioAssay (NCI).
